From PubChem BioAssay (NCI)
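A five-concentration, 48-hour dose response in 96-well plates underlies each endpoint, interpolated linearly between surrounding concentrations. TGI denotes the concentration required for complete inhibition of growth.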

Key:
Assay in all cases: DTP human tumour cell line panel, 48 h
786-0 renal = test system: 786-0 renal
A498 renal = test system: A498 renal
A549 NSCLC = test system: A549 NSCLC
ACHN renal = test system: ACHN renal
CCRF-CEM leukemia = test system: CCRF-CEM leukemia
COLO 205 colon = test system: COLO 205 colon
DLD-1 colon = test system: DLD-1 colon
DMS 114 small cell lung = test system: DMS 114 small cell lung
DMS 273 small cell lung = test system: DMS 273 small cell lung
EKVX NSCLC = test system: EKVX NSCLC
HCC-2998 colon = test system: HCC-2998 colon
HCT-116 colon = test system: HCT-116 colon
HCT-15 colon = test system: HCT-15 colon
HL-60(TB) leukemia = test system: HL-60(TB) leukemia
HOP-18 NSCLC = test system: HOP-18 NSCLC
HOP-62 NSCLC = test system: HOP-62 NSCLC
HOP-92 NSCLC = test system: HOP-92 NSCLC
HT29 colon = test system: HT29 colon
IGROV1 ovarian = test system: IGROV1 ovarian
K-562 leukemia = test system: K-562 leukemia
KM12 colon = test system: KM12 colon
KM20L2 colon = test system: KM20L2 colon
LOX IMVI melanoma = test system: LOX IMVI melanoma
LXFL 529 NSCLC = test system: LXFL 529 NSCLC
M14 melanoma = test system: M14 melanoma
M19-MEL melanoma = test system: M19-MEL melanoma
MALME-3M melanoma = test system: MALME-3M melanoma
MOLT-4 leukemia = test system: MOLT-4 leukemia
NCI-H226 lung = test system: NCI-H226 lung
NCI-H23 lung = test system: NCI-H23 lung
NCI-H460 lung = test system: NCI-H460 lung
NCI-H522 lung = test system: NCI-H522 lung
OVCAR-3 ovarian = test system: OVCAR-3 ovarian
OVCAR-4 ovarian = test system: OVCAR-4 ovarian
OVCAR-8 ovarian = test system: OVCAR-8 ovarian
RPMI-8226 leukemia = test system: RPMI-8226 leukemia
RXF 393 renal = test system: RXF 393 renal
SF-268 CNS = test system: SF-268 CNS
SF-295 CNS = test system: SF-295 CNS
SF-539 CNS = test system: SF-539 CNS
SK-MEL-2 melanoma = test system: SK-MEL-2 melanoma
SK-MEL-28 melanoma = test system: SK-MEL-28 melanoma
SK-OV-3 ovarian = test system: SK-OV-3 ovarian
SN12C renal = test system: SN12C renal
SNB-19 CNS = test system: SNB-19 CNS
SNB-75 CNS = test system: SNB-75 CNS
SNB-78 CNS = test system: SNB-78 CNS
SR leukemia = test system: SR leukemia
SW-620 colon = test system: SW-620 colon
TK-10 renal = test system: TK-10 renal
U251 CNS = test system: U251 CNS
UACC-257 melanoma = test system: UACC-257 melanoma
UACC-62 melanoma = test system: UACC-62 melanoma
UO-31 renal = test system: UO-31 renal
XF 498 CNS = test system: XF 498 CNS
CAKI-1 renal = test system: CAKI-1 renal
OVCAR-5 ovarian = test system: OVCAR-5 ovarian
SK-MEL-5 melanoma = test system: SK-MEL-5 melanoma

CN1C(=O)N(C)C(N2CCCC2)c2c1nc1ccccn1c2=O (stereo unspecified)
TGI (786-0 renal): > 100 µM | TGI (A498 renal): > 100 µM | TGI (A549 NSCLC): > 100 µM | TGI (ACHN renal): > 100 µM | TGI (CCRF-CEM leukemia): > 100 µM | TGI (COLO 205 colon): > 100 µM | TGI (DLD-1 colon): > 100 µM | TGI (DMS 114 small cell lung): > 100 µM | TGI (DMS 273 small cell lung): > 100 µM | TGI (EKVX NSCLC): > 100 µM | TGI (HCC-2998 colon): > 100 µM | TGI (HCT-116 colon): > 100 µM | TGI (HCT-15 colon): > 100 µM | TGI (HL-60(TB) leukemia): > 100 µM | TGI (HOP-18 NSCLC): > 100 µM | TGI (HOP-62 NSCLC): > 100 µM | TGI (HOP-92 NSCLC): > 100 µM | TGI (HT29 colon): > 100 µM | TGI (IGROV1 ovarian): > 100 µM | TGI (K-562 leukemia): > 100 µM | TGI (KM12 colon): > 100 µM | TGI (KM20L2 colon): > 100 µM | TGI (LOX IMVI melanoma): > 100 µM | TGI (LXFL 529 NSCLC): > 100 µM | TGI (M14 melanoma): > 100 µM | TGI (M19-MEL melanoma): > 100 µM | TGI (MALME-3M melanoma): > 100 µM | TGI (MOLT-4 leukemia): > 100 µM | TGI (NCI-H226 lung): > 100 µM | TGI (NCI-H23 lung): > 100 µM | TGI (NCI-H460 lung): > 100 µM | TGI (NCI-H522 lung): > 100 µM | TGI (OVCAR-3 ovarian): > 100 µM | TGI (OVCAR-4 ovarian): > 100 µM | TGI (OVCAR-8 ovarian): > 100 µM | TGI (RPMI-8226 leukemia): > 100 µM | TGI (RXF 393 renal): > 100 µM | TGI (SF-268 CNS): > 100 µM | TGI (SF-295 CNS): > 100 µM | TGI (SF-539 CNS): > 100 µM | TGI (SK-MEL-2 melanoma): > 100 µM | TGI (SK-MEL-28 melanoma): > 100 µM | TGI (SK-OV-3 ovarian): > 100 µM | TGI (SN12C renal): > 100 µM | TGI (SNB-19 CNS): > 100 µM | TGI (SNB-75 CNS): > 100 µM | TGI (SNB-78 CNS): > 100 µM | TGI (SR leukemia): > 100 µM | TGI (SW-620 colon): > 100 µM | TGI (TK-10 renal): > 100 µM | TGI (U251 CNS): > 100 µM | TGI (UACC-257 melanoma): > 100 µM | TGI (UACC-62 melanoma): > 100 µM | TGI (UO-31 renal): > 100 µM | TGI (XF 498 CNS): > 100 µM

Cc1c2nc3ccccc3sc-2cc(=O)c1C
TGI (786-0 renal): > 100 µM | TGI (A498 renal): > 100 µM | TGI (A549 NSCLC): > 100 µM | TGI (ACHN renal): > 100 µM | TGI (CAKI-1 renal): > 100 µM | TGI (CCRF-CEM leukemia): > 100 µM | TGI (COLO 205 colon): > 89.2 µM | TGI (DLD-1 colon): > 100 µM | TGI (DMS 114 small cell lung): 79.7 µM | TGI (DMS 273 small cell lung): > 100 µM | TGI (EKVX NSCLC): > 100 µM | TGI (HCC-2998 colon): > 100 µM | TGI (HCT-116 colon): > 100 µM | TGI (HCT-15 colon): > 100 µM | TGI (HL-60(TB) leukemia): > 85.5 µM | TGI (HOP-18 NSCLC): > 100 µM | TGI (HOP-62 NSCLC): > 100 µM | TGI (HOP-92 NSCLC): > 100 µM | TGI (HT29 colon): > 100 µM | TGI (IGROV1 ovarian): > 100 µM | TGI (K-562 leukemia): > 91.6 µM | TGI (KM12 colon): > 100 µM | TGI (KM20L2 colon): > 100 µM | TGI (LOX IMVI melanoma): > 100 µM | TGI (LXFL 529 NSCLC): > 100 µM | TGI (M14 melanoma): > 100 µM | TGI (M19-MEL melanoma): 29.7 µM | TGI (MALME-3M melanoma): > 100 µM | TGI (MOLT-4 leukemia): > 100 µM | TGI (NCI-H226 lung): > 100 µM | TGI (NCI-H23 lung): > 100 µM | TGI (NCI-H460 lung): > 100 µM | TGI (NCI-H522 lung): > 100 µM | TGI (OVCAR-3 ovarian): > 90.6 µM | TGI (OVCAR-4 ovarian): > 100 µM | TGI (OVCAR-5 ovarian): > 100 µM | TGI (OVCAR-8 ovarian): > 100 µM | TGI (RPMI-8226 leukemia): > 100 µM | TGI (RXF 393 renal): > 100 µM | TGI (SF-268 CNS): > 100 µM | TGI (SF-295 CNS): > 100 µM | TGI (SF-539 CNS): > 100 µM | TGI (SK-MEL-2 melanoma): > 25.2 µM | TGI (SK-MEL-28 melanoma): > 100 µM | TGI (SK-MEL-5 melanoma): > 100 µM | TGI (SK-OV-3 ovarian): > 100 µM | TGI (SNB-19 CNS): > 100 µM | TGI (SNB-75 CNS): > 100 µM | TGI (SNB-78 CNS): > 100 µM | TGI (SW-620 colon): > 100 µM | TGI (TK-10 renal): > 100 µM | TGI (U251 CNS): > 100 µM | TGI (UACC-257 melanoma): > 46.8 µM | TGI (UACC-62 melanoma): 70.3 µM | TGI (UO-31 renal): > 100 µM | TGI (XF 498 CNS): > 100 µM
